Where a name gives a salt, the structure may show the parent alone.
Biological target: T1, human serotonin transporter (hSERT) (Homo sapiens, UniProt P31645)
T1 construct: expressed in transfected cells; host or cells: HEK-293 (human embryonic kidney cells), stably transfected
Assay: Inhibition of 3H-Serotonin uptake into HEK-293 cells stably transfected with hSERT
Type: cell-based
Conditions: not given
Description: A number of compounds were tested for biological activity by their ability to inhibit the uptake of serotonin by human serotonin transporters as follows.
Human embryonic kidney cells (HEK-293) stably transfected with either the human serotonin transporter (hSERT), noradrenaline transporter (hNET) or dopamine transporter (hDAT) were cultured under standard cell culture techniques (cells were grown at 37° C and 5% CO2 in DMEM-culture media (supplemented with 10% dialysed foetal calf serum (FCS), 2 mM 1-glutamine and 250 μg/ml geneticin)). Cells were harvested for the assay to yield a cell suspension of 750,000 cells/ml.
(i) Determination of inhibitor potency
All test compounds were dissolved in 100% DMSO and diluted down in assay buffer to give appropriate test concentrations. Assays were carried out in 96-well filter bottom plates. Cells (7500 cells/assay well) were pre-incubated in standard assay buffer containing either test compound, standard inhibitor or compound vehicle (1 % DMSO) for 5 minutes. Reactions were started by addition of either ^3H-Serotonin, ^3H-Noradrenaline or ^3H-Dopamine substrates. All reactions were carried out at room temperature in a shaking incubator. Incubation times were 5 minutes for the hSERT and hDAT assays and 15 minutes for the hNET assay. Reactions were terminated by removal of the reaction mixture using a vacuum manifold followed by rapid washing with ice cold assay buffer. The quantity of ^3H-substrate incorporated into the cells was then quantified.
Assay plates were dried in a microwave oven, scintillation fluid added, and radioactivity measured.
(iii) Standard Assay Buffer Composition:
Note: The pH of the buffer was adjusted to 7.40 with 1 M NaOH before addition of CaCI2 and pargyline.
(iv) Summary of Assay Parameters

T1 sequence (P31645 whole entry): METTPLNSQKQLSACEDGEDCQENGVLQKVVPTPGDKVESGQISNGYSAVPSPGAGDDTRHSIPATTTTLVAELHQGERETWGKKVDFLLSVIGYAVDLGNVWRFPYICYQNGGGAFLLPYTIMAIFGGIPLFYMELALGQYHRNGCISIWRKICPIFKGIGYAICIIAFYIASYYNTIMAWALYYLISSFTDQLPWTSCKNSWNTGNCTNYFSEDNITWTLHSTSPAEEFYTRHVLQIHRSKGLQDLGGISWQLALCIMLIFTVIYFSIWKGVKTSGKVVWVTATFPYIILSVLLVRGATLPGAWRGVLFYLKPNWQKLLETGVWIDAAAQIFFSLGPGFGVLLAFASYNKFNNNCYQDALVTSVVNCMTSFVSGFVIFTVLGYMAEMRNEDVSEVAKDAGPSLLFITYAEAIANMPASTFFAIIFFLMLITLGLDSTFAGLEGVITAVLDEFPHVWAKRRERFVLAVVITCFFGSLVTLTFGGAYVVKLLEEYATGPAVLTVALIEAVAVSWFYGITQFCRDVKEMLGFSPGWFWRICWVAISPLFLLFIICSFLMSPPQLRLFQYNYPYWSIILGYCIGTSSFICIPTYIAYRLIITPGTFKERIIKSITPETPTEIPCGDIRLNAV

SMILES | IC50
CNCc1cc(Br)ccc1Oc1ccc(SC)cc1 [Example 23, N-{5-Bromo-2-[4-(methylsulfanyl)phenoxy]benzyl}-N-methylamine] | ≤ 50 nM
CSc1ccc(Oc2ccc(NS(=O)(=O)C(F)(F)F)cc2CN(C)C)cc1 [Example 140, N-{3-[(Dimethylamino)methyl]-4-[4-(methylsulfanyl)phenoxy]phenyl}-(trifluoro)methanesulfonamide] | ≤ 50 nM
CNCc1cc(-n2ccnn2)ccc1Oc1ccc(SC)cc1 [Example 181, N-Methyl-N-[2-[4-(methylsulfanyl)phenoxy]-5-(1 H-1,2,3-triazol-1-yl)benzyl]amine] | ≤ 50 nM
CNCc1cc(-n2nccn2)ccc1Oc1ccc(SC)cc1 [Example 182, N-methyl-N-[2-[4-(methylsulfanyl)phenoxy]-5-(2 H-1,2,3-triazol-2-yl)benzyl]amine] | ≤ 50 nM
CSc1ccc(Oc2ccc(-n3nccn3)cc2CN(C)C)cc1 [Example 183, N,N-Dimethyl-N-[2-[4-(methylsulfanyl)phenoxy]-5-(2 H-1,2,3-triazol-2-yl)benzyl]amine] | ≤ 50 nM
CNCc1cc(-n2ccnc2)ccc1Oc1ccc(SC)cc1 [Example 185, N-[2-[4-(Methylsulfanyl)phenoxy]-5-(1 H-imidazol-1-yl)benzyl]-N-methylamine] | ≤ 50 nM
CNCc1cc(-n2cncn2)ccc1Oc1ccc(SC)cc1 [Example 187, N-Methyl-N-[2-[4-(methylsulfanyl)phenoxy]-5-(1 H-1,2,4-triazol-1-yl)benzyl]amine] | ≤ 50 nM
CSc1ccc(Oc2ccc(-n3cnnc3)cc2CN(C)C)cc1 [Example 189, N-[2-[4-(Methylsulfanyl)phenoxy]-5-(4H-1,2,4-triazol-4-yl)benzyl]-N,N-dimethylamine] | ≤ 50 nM

Same assay, conditions: HEK-293 cells transfected with hSERT, 3H-Serotonin uptake, 5 minutes incubation, room temperature; read-out: serotonin re-uptake inhibition (SRI) IC50

SMILES | IC50
CN(C)Cc1cc(Br)ccc1Oc1ccc(C(F)(F)F)cc1 [Example 3] | ≤ 50 nM
COc1ccc(Oc2ccc(SC)cc2)c(CN(C)C)c1 [Example 14] | ≤ 50 nM
CSc1ccc(Oc2ccc(S(N)(=O)=O)cc2CN(C)C)cc1 [Example 28, 3-[(Dimethylamino)methyl]-4-[4-(methylsulfanyl)phenoxy]benzenesulfonamide] | ≤ 50 nM
CNS(=O)(=O)c1ccc(Oc2ccc(C(F)(F)F)cc2)c(CN(C)C)c1 [Example 30] | ≤ 50 nM
CN(C)Cc1cc(S(N)(=O)=O)ccc1Oc1ccc(OC(F)(F)F)cc1 [Example 36] | ≤ 50 nM
CNCc1cc(O)ccc1Oc1ccc(SC)cc1 [Example 74, 3-[(Methylamino)methyl]-4-[4-(methylsulfanyl)phenoxy]phenol] | ≤ 50 nM
CNCc1cc(C#N)ccc1Oc1ccc(SC)cc1 [Example 87, 3-[(Methylamino)methyl]-4-[4-(methylsulfanyl)phenoxy]benzonitrile] | ≤ 50 nM
CSc1ccc(Oc2ccc(C(N)=O)cc2CN(C)C)cc1 [Example 91, 3-[(Dimethylamino)methyl]-4-[4-(methylsulfanyl)phenoxy]benzamide] | ≤ 50 nM
CNCc1cc(C(N)=O)ccc1Oc1ccc(SC)cc1 [Example 97] | ≤ 50 nM
CN(C)Cc1ccc(C(N)=O)cc1Oc1ccc(OC(F)(F)F)cc1 [Example 98, 4-[(Dimethylamino)methyl]-3-[4-(trifluoromethoxy)phenoxy]benzamide] | ≤ 50 nM
CNC(=O)c1ccc(Oc2ccc(OC(F)(F)F)cc2)c(CN(C)C)c1 [Example 101] | ≤ 50 nM
CN(C)Cc1cc(CN)ccc1Oc1ccc(OC(F)(F)F)cc1 [Example 110, N-{5-(Aminomethyl)-2-[4-(trifluoromethoxy)phenoxy]benzyl}-N,N-dimethylamine] | ≤ 50 nM
CN(C)Cc1cc(NS(C)(=O)=O)ccc1Oc1ccc(C(F)(F)F)cc1 [Example 114, N-(3-[(Dimethylamino)methyl]-4-[4-(trifluoromethyl)phenoxy]phenyl} methanesulfonamide] | ≤ 50 nM
CNCc1cc(NS(C)(=O)=O)ccc1Oc1ccc(C(F)(F)F)cc1 [Example 121, N-{3-[(Methylamino)methyl]-4-[4-(trifluoromethyl)phenoxy]phenyl}-methanesulfonamide] | ≤ 50 nM
CNCc1cc(N(CCO)S(C)(=O)=O)ccc1Oc1ccc(SC)cc1 [Example 130] | ≤ 50 nM
CSc1ccc(Oc2ccc(Cl)cc2CN(C)C)cc1 [Example 135] | ≤ 50 nM
CSc1ccc(Oc2ccc(OC(F)(F)F)cc2)c(CN(C)C)c1 [Example 141, N,N-Dimethyl-N-{5-(methylsulfanyl)-2-[4-(trifluoromethoxy)phenoxy]benzyl}amine] | ≤ 50 nM
CNCc1cc(CO)ccc1Oc1ccc(SC)cc1 [Example 156, {3-[(Methylamino)methyl]-4-[4-(methylsulfanyl)phenoxy]phenyl}methanol] | ≤ 50 nM
CN(C)Cc1cc(CO)ccc1Oc1ccc(OC(F)(F)F)cc1 [Example 157] | ≤ 50 nM
CNCc1cc(C(=O)N[C@@H](C)CO)ccc1Oc1ccc(SC)cc1 [Example 174] | ≤ 50 nM
CNCc1cc(C(=O)NC)ccc1Oc1ccc(SC)c(OC)c1 [Example 176] | ≤ 50 nM
CSc1ccc(Oc2ccc(-n3ccnn3)cc2CN(C)C)cc1 [Example 184, N,N-Dimethyl-N-[2-[4-(methylsulfanyl)phenoxy]-5-(1 H-1,2,3-triazol-1-yl)benzyl]-amine] | ≤ 50 nM
CSc1ccc(Oc2ccc(-n3cncn3)cc2CN(C)C)cc1 [Example 188, N,N-dimethyl-N-[2-[4-(methylsulfanyl)phenoxy]-5-(1 H-1,2,4-triazol-1-yl)benzyl]-amine] | ≤ 50 nM
CNCc1cc(-n2ccc(N)n2)ccc1Oc1ccc(SC)cc1 [Example 190, N-{5-(3-Amino-1H-pyrazol-1-yl)-2-[4-(methylsulfanyl)phenoxy]benzyl}-N-methylamine] | ≤ 50 nM

Further lines, results first:

IC50 | SMILES
≤ 50 nM | CSc1ccc(Oc2ccc(Br)cc2CN(C)C)cc1 [Example 9]
≤ 50 nM | CSc1ccc(Oc2ccc(S(=O)(=O)N[C@@H](C)CO)cc2CN(C)C)cc1 [Example 53]
≤ 50 nM | CN(C)Cc1cc(C#N)ccc1Oc1ccc(OC(F)(F)F)cc1 [Example 84]
≤ 50 nM | CSc1ccc(Oc2ccc(C#N)cc2CN(C)C)cc1 [Example 85]
≤ 50 nM | CN(C)Cc1ccc(C(N)=O)cc1Oc1ccc(C(F)(F)F)cc1 [Example 90, 4-[(Dimethylamino)methyl]-3-[4-(trifluoromethyl)phenoxy]benzamide]
≤ 50 nM | CN(C)Cc1cc(C(N)=O)ccc1Oc1ccc(OC(F)(F)F)cc1 [Example 94]
≤ 50 nM | CN(C)Cc1cc(C(N)=O)ccc1Oc1ccc(C(F)(F)F)cc1 [Example 95]
≤ 50 nM | CN(C)Cc1cc(NS(C)(=O)=O)ccc1Oc1ccc(OC(F)(F)F)cc1 [Example 116]
≤ 50 nM | CN(C)Cc1cc(CNS(C)(=O)=O)ccc1Oc1ccc(OC(F)(F)F)cc1 [Example 117]
≤ 50 nM | CN(C)Cc1ccc(CNS(C)(=O)=O)cc1Oc1ccc(OC(F)(F)F)cc1 [Example 120]
≤ 50 nM | CNCc1cc(NS(C)(=O)=O)ccc1Oc1ccc(SC)cc1 [Example 128, N-{3-[(Methylamino)methyl]-4-[4-(methylsulfanyl)phenoxy]phenyl}methanesulfonamide]
≤ 50 nM | CN(C)Cc1cc(S(C)(=O)=O)ccc1Oc1ccc(OC(F)(F)F)cc1 [Example 145, N,N-Dimethyl-N-{5-(methylsulfonyl)-2-[4-(trifluoromethoxy)phenoxy]benzyl}amine]
≤ 50 nM | CN(C)Cc1cc([S+](C)[O-])ccc1Oc1ccc(C(F)(F)F)cc1 (stereo not shown) [Example 147]
≤ 50 nM | CC[S+]([O-])c1ccc(CN(C)C)c(Oc2ccc(C(F)(F)F)cc2)c1 (stereo not shown) [Example 148]
≤ 50 nM | CNCc1cc(C(N)=O)ccc1Oc1ccc(SC)c(OC)c1 [Example 169, 4-[3-Methoxy-4-(methylsulfanyl)phenoxy]-3-[(methylamino)methyl]benzamide]
≤ 50 nM | CNCc1cc(C(=O)NCCOC)ccc1Oc1ccc(SC)cc1 [Example 170]

Tested on: not given
Assay: not given
Conditions: not given

melting point | SMILES
193 to 194 °C | CSc1ccc(Oc2ccc(S(N)(=O)=O)cc2CN(C)C)cc1 (as salt: hydrochloride) [Example 28, 3-[(Dimethylamino)methyl]-4-[4-(methylsulfanyl)phenoxy]benzenesulfonamide]

— patent publication US6448293B1, “Diphenyl ether compounds useful in therapy” (Pfizer Inc., priority 2000, dated 2002)
